Assay results published in patent US9187518B2, “Antiangiogenic brassinosteroid compounds” (CONSEJO NACIONAL DE INVESTIGACIONES CIENTIFICAS Y TECNICAS …, priority 2011, dated 2015).

How the values were obtained:
[1] = system: J774A.1 cells stimulated with LPS; test: Microarray gene expression in J774A.1 cells stimulated with LPS; format: cell-based, mouse; settings: J774A.1, 100 ng/ml LPS, 40 μM, 6 h
Experimental: HSV-1 infected cells and LPS stimulated cells were transcriptionally analyzed by using the whole human genome microarray and whole mouse genome microarray (Agilent Technologies, Santa Clara, Calif.), corresponding to 41,000 human or mice genes and transcripts.
RNA was extracted with chloroform/isopropanol and purified from Trizol.
cDNA synthesis, amplification and labeling of cRNA was performed, following the protocol of two colors of Agilent. Cyanine: 3-CTP and 5-CTP labeled cRNA was prepared from purified RNA (Two-Color Microarray-Based Gene Expression Analysis—Quick Amp Labeling, Agilent). Labeled cRNA was purified, quantified and the efficiency of labeling determined.
After that, we proceeded with the hybridization, washing, assembling of the chips and scanning. The scanner software (Feature extraction) performed the scan quality control. The fluorescence intensity data obtained for each chip were analyzed using GeneSpring XG11 and Multi Experiment Viewer (MeV) programs.
Labeled samples were placed in human and mouse hybridizing chips for HCLE and J774A.1 cells, respectively, during 17 h at 60° C. Successive washings were done with different washing, stabilization and drying solutions, and samples were scanned in the Agilent scanner G2565BA.
We used the commercial software Agilent Feature Extraction for quality control of the scan. The software converts the scanned images produced in quantitative data for further analysis. It calculates the errors associated with hybridization, washing and scanning and detects outliers. On the one hand, it performs an analysis of the image to locate the grid on the chip and in it, the spots for each gene, and on the other hand, it makes an analysis of data, to define and measure information (fluorescence intensity) of each spot, for the analysis of gene expression.
We identified differentially expressed genes with statistical significance. We used two programs, the XG11 and GeneSpring and the Multi Experiment Viewer (MeV).
For this purpose, epithelial infected and inflammatory cells were processed to obtain RNA samples. HCLE cells infected with HSV-1 (m.o.i.=1) and J774A.1 cells stimulated with LPS (100 ng/ml) were treated or not with 40 μM of Compound 1. To extract total RNA, cells were harvested with Trizol at 6 h p.i. and at 6 h post-LPS induction. Eight replicates were obtained from HSV-1 infected and LPS-stimulated cells (four ‘control’ each) and other eight, from infected and LPS-stimulated cells treated with Compound 1 (four ‘treated’ each).

[2] = system: HUVEC cells; test: Capillary tube formation on a Matrigel; format: cell-based, human; settings: for reduction of tube formation vs untreated control: not statistically significant
Experimental: The formation of capillary tube like structures by HUVEC cells was analyzed on 24-well cell culture plates coated with an extracellular membrane matrix (Matrigel; BD Biosciences).
Matrigel was thawed at 4° C. Using precooled plates and tips, 100 μl/well of Matrigel was distributed and allowed to gelify at 37° C. for at least 30 min. Cells were seeded on the polymerized Matrigel (5 to 8×10^4 cells/well). The plate was incubated at 37° C., and tube formation was observed under a optic inverted microscope. Digital pictures were taken at different times with a camera. Tubular structures were quantified by manual counting of low power fields (25×) and inhibition percentage was expressed using untreated wells as 100%.
The formation of capillary tube-like structures by HUVEC cells was analyzed on 24-well cell culture plates coated with an extracellular membrane matrix (Matrigel; BD Biosciences). Matrigel was thawed at 4° C. Using precooled plates and tips, 100 μl/well of Matrigel was distributed and allowed to gelify at 37° C. for at least 30 min. Cells were seeded on the polymerized Matrigel (5 to 8×10^4 cells/well) in absence and presence of concentrations of 20 μM and 40 μM of each compound. The plate was incubated at 37° C., and tube formation was observed under an optic inverted microscope. Compound 1 was used as positive control.

For `CC[C@@H](C(C)C)[C@H](O)[C@@H](O)[C@@H](C)[C@H]1CC[C@H]2[C@@H]3CCC4=CC(=O)CC[C@]4(C)[C@H]3CC[C@]12C` [Compound 1, (22S,23S)-22,23-dihydroxystigmast-4-en-3-one], the Dusp2 gene expression [1] was “restrained”, the “expression of ATF3 and TLR4” value [1] was “overexpressed” and the “expression of IL-10 and Socs2” value ([1]; vs untreated control) was “increased”. The “expression of genes for IL-12, IL-23 and CXCL10” value ([1]; vs untreated stimulated) was “overexpression”, the “reduction of tube formation vs untreated control” value ([2]; 2.5 μM, 24 h) was 17.3% and the “reduction of tube formation vs untreated control” value ([2]; 5 μM, 24 h) was 25.9%. The “reduction of the tube-like network” value ([2]; 10 μM, 24 h) was 59.8%, the “formation of capillary tube like structures” value ([2]; 20 μM and 40 μM, comparative assay) was “showed inhibitory activity” and the “reduction of the tube-like network” value ([2]; 20 μM, 24 h) was 90.7%. For the same compound, the “inhibition of tube formation” value ([2]; 50 μM, 24 h) was “complete inhibition”, the “inhibition of tube formation” value ([2]; 100 μM, 24 h) was “complete inhibition” and the inhibition at 40 µM ([2]; Homo sapiens, HUVEC, 40 μM, 24 h) was 93.9%.
